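A five-concentration, 48-hour dose response in 96-well plates underlies each endpoint, interpolated linearly between surrounding concentrations. TGI: total growth inhibition.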
What was measured:
Test in all cases: inhibition of tumour cell growth, NCI panel, 48 h
SK-OV-3 ovarian = tested on: SK-OV-3 ovarian
OVCAR-4 ovarian = tested on: OVCAR-4 ovarian
CAKI-1 renal = tested on: CAKI-1 renal
OVCAR-8 ovarian = tested on: OVCAR-8 ovarian
HCC-2998 colon = tested on: HCC-2998 colon
EKVX NSCLC = tested on: EKVX NSCLC
MOLT-4 leukemia = tested on: MOLT-4 leukemia
LOX IMVI melanoma = tested on: LOX IMVI melanoma
DMS 273 small cell lung = tested on: DMS 273 small cell lung
OVCAR-5 ovarian = tested on: OVCAR-5 ovarian
RXF 393 renal = tested on: RXF 393 renal
LXFL 529 NSCLC = tested on: LXFL 529 NSCLC
MALME-3M melanoma = tested on: MALME-3M melanoma
NCI-H460 lung = tested on: NCI-H460 lung
U251 CNS = tested on: U251 CNS
COLO 205 colon = tested on: COLO 205 colon
HOP-18 NSCLC = tested on: HOP-18 NSCLC
SNB-19 CNS = tested on: SNB-19 CNS
DMS 114 small cell lung = tested on: DMS 114 small cell lung
NCI-H23 lung = tested on: NCI-H23 lung
ACHN renal = tested on: ACHN renal
HT29 colon = tested on: HT29 colon
A549 NSCLC = tested on: A549 NSCLC
KM20L2 colon = tested on: KM20L2 colon
HL-60(TB) leukemia = tested on: HL-60(TB) leukemia
SK-MEL-2 melanoma = tested on: SK-MEL-2 melanoma
SNB-75 CNS = tested on: SNB-75 CNS
HCT-15 colon = tested on: HCT-15 colon
SK-MEL-5 melanoma = tested on: SK-MEL-5 melanoma
HOP-62 NSCLC = tested on: HOP-62 NSCLC
M14 melanoma = tested on: M14 melanoma
SNB-78 CNS = tested on: SNB-78 CNS
DLD-1 colon = tested on: DLD-1 colon
RPMI-8226 leukemia = tested on: RPMI-8226 leukemia
SK-MEL-28 melanoma = tested on: SK-MEL-28 melanoma
IGROV1 ovarian = tested on: IGROV1 ovarian
CCRF-CEM leukemia = tested on: CCRF-CEM leukemia
SN12C renal = tested on: SN12C renal
NCI-H226 lung = tested on: NCI-H226 lung
NCI-H522 lung = tested on: NCI-H522 lung
A498 renal = tested on: A498 renal
SF-295 CNS = tested on: SF-295 CNS
UO-31 renal = tested on: UO-31 renal
HCT-116 colon = tested on: HCT-116 colon
SR leukemia = tested on: SR leukemia
UACC-62 melanoma = tested on: UACC-62 melanoma
786-0 renal = tested on: 786-0 renal
M19-MEL melanoma = tested on: M19-MEL melanoma
K-562 leukemia = tested on: K-562 leukemia
UACC-257 melanoma = tested on: UACC-257 melanoma
SF-268 CNS = tested on: SF-268 CNS
KM12 colon = tested on: KM12 colon
OVCAR-3 ovarian = tested on: OVCAR-3 ovarian
TK-10 renal = tested on: TK-10 renal
HOP-92 NSCLC = tested on: HOP-92 NSCLC
XF 498 CNS = tested on: XF 498 CNS
SF-539 CNS = tested on: SF-539 CNS
SW-620 colon = tested on: SW-620 colon

For `N#COc1ccc(Oc2ccccc2)cc1`, the TGI (SK-OV-3 ovarian) was greater than 100 µM, the TGI (OVCAR-4 ovarian) was greater than 100 µM and the TGI (CAKI-1 renal) was greater than 100 µM. The TGI (OVCAR-8 ovarian) was greater than 100 µM, the TGI (HCC-2998 colon) was greater than 100 µM and the TGI (EKVX NSCLC) was greater than 100 µM. It also gave a TGI (MOLT-4 leukemia) greater than 100 µM, a TGI (LOX IMVI melanoma) of 40.9 µM and a TGI (DMS 273 small cell lung) of 50.4 µM. The TGI (OVCAR-5 ovarian) was greater than 100 µM, the TGI (RXF 393 renal) was greater than 100 µM and the TGI (LXFL 529 NSCLC) was greater than 100 µM. It also gave a TGI (MALME-3M melanoma) greater than 100 µM, a TGI (NCI-H460 lung) greater than 100 µM and a TGI (U251 CNS) greater than 100 µM. For the same compound, the TGI (COLO 205 colon) was greater than 100 µM, the TGI (HOP-18 NSCLC) was greater than 100 µM and the TGI (SNB-19 CNS) was greater than 100 µM. It also gave a TGI (DMS 114 small cell lung) of 89.6 µM, a TGI (NCI-H23 lung) greater than 100 µM and a TGI (ACHN renal) greater than 100 µM. The TGI (HT29 colon) was greater than 100 µM, the TGI (A549 NSCLC) was greater than 100 µM and the TGI (KM20L2 colon) was greater than 100 µM. For the same compound, the TGI (HL-60(TB) leukemia) was 75.8 µM, the TGI (SK-MEL-2 melanoma) was greater than 100 µM and the TGI (SNB-75 CNS) was greater than 100 µM. It also gave a TGI (HCT-15 colon) greater than 100 µM, a TGI (SK-MEL-5 melanoma) greater than 100 µM and a TGI (HOP-62 NSCLC) greater than 100 µM. The TGI (M14 melanoma) was greater than 100 µM, the TGI (SNB-78 CNS) was greater than 100 µM and the TGI (DLD-1 colon) was greater than 100 µM. The TGI (RPMI-8226 leukemia) was 83.5 µM, the TGI (SK-MEL-28 melanoma) was greater than 100 µM and the TGI (IGROV1 ovarian) was greater than 100 µM. It also gave a TGI (CCRF-CEM leukemia) of 60 µM, a TGI (SN12C renal) greater than 100 µM and a TGI (NCI-H226 lung) greater than 100 µM. It also gave a TGI (NCI-H522 lung) greater than 100 µM, a TGI (A498 renal) greater than 100 µM and a TGI (SF-295 CNS) greater than 100 µM. The TGI (UO-31 renal) was greater than 100 µM, the TGI (HCT-116 colon) was greater than 100 µM and the TGI (SR leukemia) was 50 µM. It also gave a TGI (UACC-62 melanoma) greater than 100 µM, a TGI (786-0 renal) greater than 100 µM and a TGI (M19-MEL melanoma) greater than 100 µM. It also gave a TGI (K-562 leukemia) greater than 100 µM, a TGI (UACC-257 melanoma) greater than 100 µM and a TGI (SF-268 CNS) greater than 100 µM. The TGI (KM12 colon) was greater than 100 µM, the TGI (OVCAR-3 ovarian) was greater than 100 µM and the TGI (TK-10 renal) was greater than 100 µM. The TGI (HOP-92 NSCLC) was greater than 100 µM, the TGI (XF 498 CNS) was greater than 100 µM and the TGI (SF-539 CNS) was 92.4 µM.
`O=C(Cc1nc2sc3c(c2c(=O)[nH]1)CCCC3)Nc1ccccc1` showed a TGI (SK-OV-3 ovarian) greater than 100 µM, a TGI (OVCAR-4 ovarian) greater than 100 µM and a TGI (CAKI-1 renal) greater than 100 µM. It also gave a TGI (OVCAR-8 ovarian) greater than 100 µM, a TGI (HCC-2998 colon) greater than 100 µM and a TGI (EKVX NSCLC) greater than 100 µM. The TGI (MOLT-4 leukemia) was greater than 100 µM, the TGI (LOX IMVI melanoma) was greater than 100 µM and the TGI (DMS 273 small cell lung) was greater than 100 µM. The TGI (OVCAR-5 ovarian) was greater than 100 µM, the TGI (RXF 393 renal) was 69.9 µM and the TGI (LXFL 529 NSCLC) was greater than 100 µM. It also gave a TGI (MALME-3M melanoma) greater than 100 µM, a TGI (NCI-H460 lung) greater than 100 µM and a TGI (U251 CNS) greater than 100 µM. The TGI (COLO 205 colon) was greater than 100 µM, the TGI (HOP-18 NSCLC) was greater than 100 µM and the TGI (SNB-19 CNS) was greater than 100 µM. For the same compound, the TGI (DMS 114 small cell lung) was greater than 100 µM, the TGI (NCI-H23 lung) was greater than 100 µM and the TGI (ACHN renal) was greater than 100 µM. It also gave a TGI (HT29 colon) greater than 100 µM, a TGI (A549 NSCLC) greater than 100 µM and a TGI (KM20L2 colon) greater than 100 µM. For the same compound, the TGI (HL-60(TB) leukemia) was greater than 100 µM, the TGI (SK-MEL-2 melanoma) was greater than 100 µM and the TGI (SNB-75 CNS) was 53.6 µM. For the same compound, the TGI (HCT-15 colon) was greater than 100 µM, the TGI (SK-MEL-5 melanoma) was greater than 100 µM and the TGI (HOP-62 NSCLC) was greater than 100 µM. The TGI (M14 melanoma) was greater than 100 µM, the TGI (RPMI-8226 leukemia) was greater than 100 µM and the TGI (SK-MEL-28 melanoma) was greater than 100 µM. It also gave a TGI (IGROV1 ovarian) greater than 100 µM, a TGI (CCRF-CEM leukemia) greater than 100 µM and a TGI (SN12C renal) greater than 100 µM. For the same compound, the TGI (NCI-H226 lung) was greater than 100 µM, the TGI (NCI-H522 lung) was greater than 100 µM and the TGI (A498 renal) was greater than 100 µM. It also gave a TGI (SF-295 CNS) greater than 100 µM, a TGI (SW-620 colon) greater than 100 µM and a TGI (HCT-116 colon) greater than 100 µM. The TGI (UACC-62 melanoma) was greater than 100 µM, the TGI (786-0 renal) was greater than 100 µM and the TGI (M19-MEL melanoma) was greater than 100 µM. It also gave a TGI (K-562 leukemia) greater than 100 µM, a TGI (SF-268 CNS) greater than 100 µM and a TGI (KM12 colon) greater than 100 µM. For the same compound, the TGI (OVCAR-3 ovarian) was greater than 100 µM, the TGI (TK-10 renal) was greater than 100 µM and the TGI (HOP-92 NSCLC) was greater than 100 µM. The TGI (XF 498 CNS) was greater than 100 µM and the TGI (SF-539 CNS) was greater than 100 µM.
With `CCO/S(=N/S(=O)(=O)c1ccccc1)c1ccccc1[N+](=O)[O-]` (stereo not given) the TGI (SK-OV-3 ovarian) was greater than 100 µM, the TGI (OVCAR-4 ovarian) was greater than 100 µM and the TGI (CAKI-1 renal) was greater than 100 µM. It also gave a TGI (OVCAR-8 ovarian) greater than 100 µM, a TGI (HCC-2998 colon) greater than 100 µM and a TGI (EKVX NSCLC) greater than 100 µM. The TGI (MOLT-4 leukemia) was greater than 100 µM, the TGI (LOX IMVI melanoma) was greater than 100 µM and the TGI (DMS 273 small cell lung) was greater than 100 µM. The TGI (OVCAR-5 ovarian) was greater than 100 µM, the TGI (LXFL 529 NSCLC) was greater than 100 µM and the TGI (MALME-3M melanoma) was greater than 100 µM. It also gave a TGI (NCI-H460 lung) greater than 100 µM, a TGI (U251 CNS) greater than 100 µM and a TGI (COLO 205 colon) greater than 100 µM. The TGI (HOP-18 NSCLC) was greater than 100 µM, the TGI (SNB-19 CNS) was greater than 100 µM and the TGI (DMS 114 small cell lung) was greater than 100 µM. It also gave a TGI (NCI-H23 lung) greater than 100 µM, a TGI (HT29 colon) greater than 100 µM and a TGI (A549 NSCLC) greater than 100 µM. It also gave a TGI (KM20L2 colon) greater than 100 µM, a TGI (SK-MEL-2 melanoma) greater than 100 µM and a TGI (SNB-75 CNS) greater than 100 µM. For the same compound, the TGI (HCT-15 colon) was greater than 100 µM, the TGI (SK-MEL-5 melanoma) was greater than 100 µM and the TGI (HOP-62 NSCLC) was greater than 100 µM. For the same compound, the TGI (M14 melanoma) was greater than 100 µM, the TGI (DLD-1 colon) was greater than 100 µM and the TGI (RPMI-8226 leukemia) was greater than 100 µM. It also gave a TGI (SK-MEL-28 melanoma) greater than 100 µM, a TGI (IGROV1 ovarian) greater than 100 µM and a TGI (CCRF-CEM leukemia) greater than 100 µM. It also gave a TGI (SN12C renal) greater than 100 µM, a TGI (NCI-H226 lung) greater than 100 µM and a TGI (NCI-H522 lung) greater than 100 µM. For the same compound, the TGI (SF-295 CNS) was greater than 100 µM, the TGI (SW-620 colon) was greater than 100 µM and the TGI (UO-31 renal) was greater than 100 µM. For the same compound, the TGI (SR leukemia) was greater than 100 µM, the TGI (UACC-62 melanoma) was greater than 100 µM and the TGI (786-0 renal) was greater than 100 µM. For the same compound, the TGI (M19-MEL melanoma) was greater than 100 µM, the TGI (K-562 leukemia) was greater than 100 µM and the TGI (UACC-257 melanoma) was greater than 100 µM. For the same compound, the TGI (SF-268 CNS) was greater than 100 µM, the TGI (KM12 colon) was greater than 100 µM and the TGI (OVCAR-3 ovarian) was greater than 100 µM. For the same compound, the TGI (XF 498 CNS) was greater than 100 µM and the TGI (SF-539 CNS) was greater than 100 µM.
